Assay results taken from paper PMC11676667, “Pharmacokinetics of Oral Cannabinoid Δ8-Tetrahydrocannabivarin and Its Main Metabolites in Healthy Participants” (Pharmaceuticals, 2024).
Where two headings read alike, the source gives them in different places.

Test: Plasma pharmacokinetics after single oral dose of Δ8-THCV in MCT oil (LC-MS/MS, non-compartmental analysis)
Type: in vivo, human
Parameters: Clast (last quantifiable concentration): unit not given here
Settings: for Clast (last quantifiable concentration) / tlast (time to last quantifiable concentration) / concentration at 0.5 h / concentration at 1 h / concentration at 2 h / concentration at 4 h / concentration at 6 h / concentration at 8 h / Tmax / AUC(0-t) / Cmax / MRT: plasma; for plasma concentration: Predose; for concentration at 0.5 h / concentration at 1 h / concentration at 2 h / concentration at 4 h / concentration at 6 h / concentration at 8 h / Tmax / AUC(0-t) / Cmax / MRT: human; for Tmax: read-out: tmax; for MRT: read-out: MRT (mean residence time)
How it was run: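 Healthy participants received single oral Δ8-THCV in MCT oil (50 mg/mL; 12.5-200 mg, or placebo) after a high-fat, high-calorie breakfast, with ≥1-week washout. Plasma (K2EDTA) sampled predose and 0.5-8 h post-dose, assayed by validated LC-MS/MS including metabolites; PK by non-compartmental analysis, sub-LLOQ values set to 0.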

[1] = 12.5 mg single oral Δ8-THCV in MCT oil, Mean (±SD)
[2] = 12.5 mg single oral Δ8-THCV in MCT oil, Median (Range)
[3] = 25 mg single oral Δ8-THCV in MCT oil, Mean (±SD)
[4] = 25 mg single oral Δ8-THCV in MCT oil, Median (Range)
[5] = 50 mg single oral Δ8-THCV in MCT oil, Mean (±SD)
[6] = 50 mg single oral Δ8-THCV in MCT oil, Median (Range)
[7] = 100 mg single oral Δ8-THCV in MCT oil, Mean (±SD)
[8] = 100 mg single oral Δ8-THCV in MCT oil, Median (Range)
[9] = 200 mg single oral Δ8-THCV in MCT oil, Mean (±SD)
[10] = 200 mg single oral Δ8-THCV in MCT oil, Median (Range)
[11] = oral, 12.5 mg, 12.5 mg Δ8-THCV dose, Mean (SD, %CV)
[12] = oral, 12.5 mg, 12.5 mg Δ8-THCV dose, Median (IQ Range)
[13] = oral, 25 mg, 25 mg Δ8-THCV dose, Mean (SD, %CV)
[14] = oral, 25 mg, 25 mg Δ8-THCV dose, Median (IQ Range)
[15] = oral, 50 mg, 50 mg Δ8-THCV dose, Mean (SD, %CV)
[16] = oral, 50 mg, 50 mg Δ8-THCV dose, Median (IQ Range)
[17] = oral, 100 mg, 100 mg Δ8-THCV dose, Mean (SD, %CV)
[18] = oral, 100 mg, 100 mg Δ8-THCV dose, Median (IQ Range)
[19] = oral, 200 mg, 200 mg Δ8-THCV dose, Mean (SD, %CV)
[20] = oral, 200 mg, 200 mg Δ8-THCV dose, Median (IQ Range)
[21] = po, 12.5 mg, 12.5 mg single oral Δ8-THCV in MCT oil, Mean (±SD)
[22] = po, 12.5 mg, 12.5 mg single oral Δ8-THCV in MCT oil, Median (Range)
[23] = po, 25 mg, 25 mg single oral Δ8-THCV in MCT oil, Mean (±SD)
[24] = po, 25 mg, 25 mg single oral Δ8-THCV in MCT oil, Median (Range)
[25] = po, 50 mg, 50 mg single oral Δ8-THCV in MCT oil, Mean (±SD)
[26] = po, 50 mg, 50 mg single oral Δ8-THCV in MCT oil, Median (Range)
[27] = po, 100 mg, 100 mg single oral Δ8-THCV in MCT oil, Mean (±SD)
[28] = po, 100 mg, 100 mg single oral Δ8-THCV in MCT oil, Median (Range)
[29] = po, 200 mg, 200 mg single oral Δ8-THCV in MCT oil, Mean (±SD)
[30] = po, 200 mg, 200 mg single oral Δ8-THCV in MCT oil, Median (Range)

## CCCc1cc(O)c2c(c1)OC(C)(C)[C@@H]1CCC(C(=O)O)=C[C@@H]21 [Δ9-THCV-COOH, 11-nor-9-carboxy-Δ9-THCV]
[1]
  Clast (last quantifiable concentration): 1.9 (±0.8)
  tlast (time to last quantifiable concentration): 6.8 (±1.7)
[2]
  Clast (last quantifiable concentration): 1.7 (1.1–3.3)
  tlast (time to last quantifiable concentration): 8 (4–8)
[3]
  Clast (last quantifiable concentration): 2.6 (±1)
  tlast (time to last quantifiable concentration): 7.6 (±1.2)
[4]
  Clast (last quantifiable concentration): 2.4 (1.3–4.4)
  tlast (time to last quantifiable concentration): 8 (4–8)
[5]
  Clast (last quantifiable concentration): 5.4 (±1.9)
  tlast (time to last quantifiable concentration): 8 (±0)
[6]
  Clast (last quantifiable concentration): 5.2 (2.4–8.5)
  tlast (time to last quantifiable concentration): 8 (8–8)
[7]
  Clast (last quantifiable concentration): 10.8 (±3.7)
  tlast (time to last quantifiable concentration): 8 (±0)
[8]
  Clast (last quantifiable concentration): 10.5 (6.2–16.1)
  tlast (time to last quantifiable concentration): 8 (8–8)
[9]
  Clast (last quantifiable concentration): 29.2 (±16.1)
  tlast (time to last quantifiable concentration): 8 (±0)
[10]
  Clast (last quantifiable concentration): 26.3 (10.9–63.8)
  tlast (time to last quantifiable concentration): 8 (8–8)
12.5 mg Δ8-THCV dose, Mean (SD, %CV)
  plasma concentration: 0 (±0, --) ng/mL
12.5 mg Δ8-THCV dose, Median (IQ Range)
  plasma concentration: 0 (0–0) ng/mL
25 mg Δ8-THCV dose, Mean (SD, %CV)
  plasma concentration: 0 (±0, --) ng/mL
25 mg Δ8-THCV dose, Median (IQ Range)
  plasma concentration: 0 (0–0) ng/mL
50 mg Δ8-THCV dose, Mean (SD, %CV)
  plasma concentration: 0 (±0, --) ng/mL
50 mg Δ8-THCV dose, Median (IQ Range)
  plasma concentration: 0 (0–0) ng/mL
100 mg Δ8-THCV dose, Mean (SD, %CV)
  plasma concentration: 0 (±0, --) ng/mL
100 mg Δ8-THCV dose, Median (IQ Range)
  plasma concentration: 0 (0–0) ng/mL
200 mg Δ8-THCV dose, Mean (SD, %CV)
  plasma concentration: 0 (±0, --) ng/mL
200 mg Δ8-THCV dose, Median (IQ Range)
  plasma concentration: 0 (0–0) ng/mL
[11]
  concentration at 0.5 h: 0 ng/mL
  concentration at 1 h: 0.1 ng/mL
  concentration at 2 h: 0.5 ng/mL
  concentration at 4 h: 1.9 ng/mL
  concentration at 6 h: 1.5 ng/mL
  concentration at 8 h: 1.2 ng/mL
[12]
  concentration at 0.5 h: 0 ng/mL
  concentration at 1 h: 0 ng/mL
  concentration at 2 h: 0 ng/mL
  concentration at 4 h: 1.8 ng/mL
  concentration at 6 h: 1.3 ng/mL
  concentration at 8 h: 1.4 ng/mL
[13]
  concentration at 0.5 h: 0 ng/mL
  concentration at 1 h: 0.7 ng/mL
  concentration at 2 h: 1.6 ng/mL
  concentration at 4 h: 3.7 ng/mL
  concentration at 6 h: 3 ng/mL
  concentration at 8 h: 2.3 ng/mL
[14]
  concentration at 0.5 h: 0 ng/mL
  concentration at 1 h: 0 ng/mL
  concentration at 2 h: 1.7 ng/mL
  concentration at 4 h: 3.6 ng/mL
  concentration at 6 h: 2.4 ng/mL
  concentration at 8 h: 2.3 ng/mL
[15]
  concentration at 0.5 h: 0 ng/mL
  concentration at 1 h: 0.6 ng/mL
  concentration at 2 h: 2.3 ng/mL
  concentration at 4 h: 5.4 ng/mL
  concentration at 6 h: 6.7 ng/mL
  concentration at 8 h: 5.4 ng/mL
[16]
  concentration at 0.5 h: 0 ng/mL
  concentration at 1 h: 0 ng/mL
  concentration at 2 h: 0 ng/mL
  concentration at 4 h: 5 ng/mL
  concentration at 6 h: 5.9 ng/mL
  concentration at 8 h: 5.2 ng/mL
[17]
  concentration at 0.5 h: 0.3 ng/mL
  concentration at 1 h: 5.8 ng/mL
  concentration at 2 h: 9.2 ng/mL
  concentration at 4 h: 16.1 ng/mL
  concentration at 6 h: 15.6 ng/mL
  concentration at 8 h: 10.8 ng/mL
[18]
  concentration at 0.5 h: 0 ng/mL
  concentration at 1 h: 1.9 ng/mL
  concentration at 2 h: 8.7 ng/mL
  concentration at 4 h: 16 ng/mL
  concentration at 6 h: 17.5 ng/mL
  concentration at 8 h: 10.5 ng/mL
[19]
  concentration at 0.5 h: 0.1 ng/mL
  concentration at 1 h: 4.9 ng/mL
  concentration at 2 h: 19.1 ng/mL
  concentration at 4 h: 37.1 ng/mL
  concentration at 6 h: 32.3 ng/mL
  concentration at 8 h: 29.2 ng/mL
[20]
  concentration at 0.5 h: 0 ng/mL
  concentration at 1 h: 2.7 ng/mL
  concentration at 2 h: 9.4 ng/mL
  concentration at 4 h: 40 ng/mL
  concentration at 6 h: 28.5 ng/mL
  concentration at 8 h: 26.3 ng/mL
oral, present study, MCT oil formulation, as compared in discussion
  Tmax: 5 h
[21]
  AUC(0-t): 7.9 ng·h/mL
  Cmax: 2.7 ng/mL
  MRT: 5.1 h
  Tmax: 5.1 h
[22]
  AUC(0-t): 5.6 ng·h/mL
  Cmax: 2.8 ng/mL
  MRT: 5.3 h
  Tmax: 4 h
[23]
  AUC(0-t): 18.3 ng·h/mL
  Cmax: 4.2 ng/mL
  MRT: 4.8 h
  Tmax: 4.6 h
[24]
  AUC(0-t): 19.6 ng·h/mL
  Cmax: 4.4 ng/mL
  MRT: 4.6 h
  Tmax: 4 h
[25]
  AUC(0-t): 33.4 ng·h/mL
  Cmax: 8.8 ng/mL
  MRT: 5.5 h
  Tmax: 5.1 h
[26]
  AUC(0-t): 30.8 ng·h/mL
  Cmax: 7.7 ng/mL
  MRT: 5.5 h
  Tmax: 6 h
[27]
  AUC(0-t): 92.5 ng·h/mL
  Cmax: 22.5 ng/mL
  MRT: 4.9 h
  Tmax: 4.5 h
[28]
  AUC(0-t): 86.5 ng·h/mL
  Cmax: 20.6 ng/mL
  MRT: 4.6 h
  Tmax: 4 h
[29]
  AUC(0-t): 201 ng·h/mL
  Cmax: 50.3 ng/mL
  MRT: 5.1 h
  Tmax: 5.3 h
[30]
  AUC(0-t): 190 ng·h/mL
  Cmax: 48.2 ng/mL
  MRT: 5.2 h
  Tmax: 6 h
Of 504 plasma samples from 15 participants after oral Δ8-THCV
  number of positive plasma samples: 260
One subject after oral Δ8-THCV in MCT oil, Figure A1
  concentration in representative plasma sample: 33.2 ng/mL
